Source: PMC11459959, “Discovery of new acetamide derivatives of 5-indole-1,3,4-oxadiazol-2-thiol as inhibitors of HIV-1 Tat-mediated viral transcription” (Antimicrobial Agents and Chemotherapy, 2024)

Key:
Type in all cases: cell-based
HIV-1NL4-3 [1] = assay: Time-of-addition assay in TZM-bl cells; settings: HIV-1NL4-3 MOI 1, 9 and 13 1.5 μM, T-20 1 µM, triptolide 5 nM, ARVs 1 µM, F-Luc at 54 h
Procedure: Fig 5 (A) Time-of-addition assay. […] Subsequently, the cells were treated with the compounds at the indicated time points (0, 1, 2, 4, 6, 8, 10, 12, 24, 30, 36, 42, and 48 h) after HIV-1 infection. The final concentrations of compounds are described in Materials and Methods. Viral activity according to the timing of drug addition was measured as F-Luc activity at 54 h after infection. The relative activities are represented as the mean ± SD (n = 3) compared with the activity observed 54 h post-infection. The relative time frames associated with each HIV-1 infection step are defined based on the time frame of susceptibility to the drug that blocks that particular infection step. […] At 16 h after infection, the viral reverse transcription (RT) product (viral cDNA) level was determined by quantitative real-time PCR (RT-qPCR) using gag and 18S rRNA primer sets and represented as the mean ± SD (n = 3) normalized against the amount of the 18S rRNA compared with the DMSO control. **P < 0.01 compared with the vehicle (DMSO). (C) An in vitro integrase (IN) assay was performed with 10 µM of the indicated compounds following the manufacturer’s protocol. **P < 0.01 compared with vehicle (DMSO). (D) A3.01 cells were infected with HIV-1 upon treatment with the indicated compounds (5 µM) and ARVs (EFV and DTG) as the experimental controls. At 40 h after infection, cellular chromosomal DNA was purified, and the integrated proviral DNA was detected through nested Alu-PCR amplification.
A time-of-addition assay was performed as previously described ([25]) with minor modifications. […] Reference drug and test compounds were subsequently added at the indicated time (0, 1, 2, 4, 6, 8, 10, 12, 24, 30, 36, 42, and 48 h after infection). Final concentrations were as follows: compounds 9 and 13 (1.5 μM), T-20 (1 µM), Triptolide (5 nM), and ARVs (AZT, EFV, DTG, RAL) (1 µM). The viral activity according to the timing of drug addition was measured using a Bright Glo luciferase assay kit (Promega). Virus activity curves present a % activity relative to the activity observed at 54 h after infection, and the data are presented as the mean ± standard deviation (SD) (n = 3). The relative time frame associated with each HIV-1 infection step was defined based on the sensitivity to each drug that blocks a particular infection step.

HIV-1NL4-3 [2] = assay: HIV-1 replication in A3.01 cells (p24 […]); settings: for EC50: Human immunodeficiency virus 1, 72 h, HIV-1NL4-3 MOI 0.1, 3 days; for inhibition of viral replication (in words): fivefold serial dilutions, 3 days
Procedure: (§1) The p24 level from the cell supernatant was subsequently determined using a p24 […] kit (PerkinElmer). In parallel, the cell viability was determined without viral infection because of the viral cytopathic effect. […] In parallel, cell viability was determined. The data (A and B) are presented as the mean ± SD (n = 3). (C) PBMCs (4 × 10^5) infected with HIV-AD8 at an MOI of 0.1 were treated with 1.5 µM of the compounds or ARVs for 3 days. The levels of p24 and cell viability were subsequently determined. (D) J1.1 cells were cultured with the compounds ([…]) under 50 ng/mL phorbol myristate acetate (PMA) treatment for 2 days. The level of p24 was subsequently determined. (E) J-Lat 6.3 cells were treated with the compounds (1.5 µM) under 1 µg/mL of PMA for 2 days. The GFP-positive cell population was analyzed using flow cytometry. The data are represented as a value relative to the DMSO-treated vehicle (D) and a percent of the GFP^+ cell population (E) as mean ± SD (n = 3).
(§2) The inhibitory effects of the compounds on viral replication were determined with some minor modifications, as previously described ([12], [62]). […] PBMCs (4 × 10^5) pre-activated with PHA-M for 3 days were washed with fresh media to remove excess PHA-M and subsequently infected with HIV-1NL4-3 or HIV-1AD8 or PIs-resistant HIV-1 strains as A3.01 infection. After infection, the infectious media were replaced with fresh media supplemented with international 10 units (IU)/mL of IL-2 and the indicated compounds. At 72 h after infection, the inhibitory effect of the compounds on viral replication was determined by measuring the p24 amount, an HIV capsid protein, using an HIV-1 p24 […] kit (PerkinElmer, Waltham, MA, USA). Cell viability was determined as described above. The inhibitory effects on provirus reversing in J1.1 and J-Lat 6.3 cells were determined as previously described ([12], [41], [63]) with some minor modifications. Briefly, 5 × 10^4 persistently HIV-1-infected J1.1 or J-Lat 6.3 cells were cultured in either the presence or absence of the compounds at a final concentration of 1.5 µM and treated with PMA (50 ng/mL for J1.1 cells, 1 µg/mL for J-Lat 6.3 cells). Two days after treatment, the levels of viral production were determined using p24 […] for J1.1 cells and flow cytometry analysis for GFP-expressing J-Lat 6.3 cells.

Cell viability of PBMCs = settings: human
Procedure: as §1, §2

HIV-1NL4-3 [3] = assay: HIV-1 infectivity in TZM-bl cells (F-Luc)
Procedure: The TZM-bl cells (also referred to as JC53BL-13) expressing human CD4, CXCR4, and CCR5 carrying the F-Luc and lacZ genes downstream of the HIV-1 LTR promoter ([60]) were used to determine the inhibitory effect of the compounds on HIV-1 infection, as previously described ([11], [12], [61]). In brief, 1 × 10^4 cells were cultured in 96-well plates for 24 h and subsequently treated with compounds at the indicated concentrations. Without replacement of the culture medium, the cells were subsequently infected with the HIV-1NL4-3 wild-type or ARV-resistant HIV-1 strains at an MOI of 1 to determine the exact inhibitory effect of compounds on a single-round infection. After 48 h, the inhibitory effect of the compounds was determined using a Bright Glo luciferase assay kit (Promega) or β-Galactosidase Enzyme Assay kit (Promega). The infectivity data were presented as a percentage relative to the dimethyl sulfoxide (DMSO) control (vehicle). Cell viability was determined using the resazurin-based PrestoBlue Cell Viability Reagent (Thermo Fisher Scientific, Waltham, MA, USA) following the manufacturer’s instructions.

[4] = Cell viability of A3.01 cells; settings: human
Procedure: as §1, §2

HIV-1NL4-3 [5] = assay: HIV-1 replication in PBMCs (p24 […]); settings: for EC50: Human immunodeficiency virus 1, PBMC, 72 h
Procedure: as §1, §2

[6] = PBMCs, absence of HIV-1 infection, mean ± SD, read-out: CC50
[7] = A3.01 cells, absence of HIV-1 infection, mean ± SD, read-out: CC50
[8] = HIV-1NL4-3 MOI 0.1, 3 days, p24, read-out: EC50
[9] = Human immunodeficiency virus 1, TZM-bl, Table S1, WT virus, TZM-bl, read-out: EC50
[10] = Human immunodeficiency virus 1, TZM-bl, 48 h, Table S1, WT virus, TZM-bl, fivefold serial dilutions, MOI 1, 48 h, read-out: EC50
[11] = HIV-1NL4-3 MOI 0.1, 3 days, p24, mean ± SD, read-out: EC50
[12] = Table S1, WT virus, 10-fold serial dilution, p24, 3 days, read-out: EC50

Structure (SMILES)	time of administration after infection at which effectiveness began to decrease / was lost (HIV-1NL4-3 [1]) [h]	SI (CC50/EC50) (HIV-1NL4-3 [2])	EC50 (HIV-1NL4-3 [2]; p24) [nM]	CC50 at 3 days (Cell viability of PBMCs; [6]) [nM]	SI (CC50/EC50) (HIV-1NL4-3 [3]; TZM-bl cells)	CC50 at 3 days [4, 7] [nM]	SI (CC50/EC50) (HIV-1NL4-3 [5])	EC50 (HIV-1NL4-3 [5]; [8]) [nM]	CC50 at 3 days (Cell viability of PBMCs) [nM]	EC50 (HIV-1NL4-3 [3]; [9]) [nM]	CC50 at 3 days [4] [nM]	EC50 (HIV-1NL4-3 [2]; p24, mean ± SD) [nM]	inhibition of viral replication (in words) (HIV-1NL4-3 [2])	EC50 (HIV-1NL4-3 [3]; [10]) [nM]	EC50 (HIV-1NL4-3 [5]; [11]) [nM]	EC50 (HIV-1NL4-3 [5]; [12]) [nM]	other results
CC(C)[C@]12O[C@H]1[C@@H]1O[C@]13[C@]1(O[C@H]1C[C@H]1C4=C(CC[C@@]13C)C(=O)OC4)[C@@H]2O [triptolide, reference compound]	24	54.05	4.07 ± 2.3	190	52.63	220 ± 40	11.23	16.9 ± 3.75									EC50 (HIV-1NL4-3 [3]; Human immunodeficiency virus 1, TZM-bl, 48 h, TZM-bl cells infected with HIV-1NL4-3 at MOI 1, 48 h, read-out: EC50): 0.38 ± 0.07 nM
C[C@@H]1CCO[C@H]2Cn3cc(C(=O)NCc4ccc(F)cc4F)c(=O)c(O)c3C(=O)N12 [DTG, dolutegravir, reference compound]	10	>7,670	< 1				>18,270	< 1	18300 ± 580	1	7670 ± 610						
Cc1[nH]c2ccc(-c3nnc(SCC(=O)N4CCCC4)o3)cc2c1C [Compound 13, 2-((5-(2,3-Dimethyl-1H-indol-5-yl)-1,3,4-oxadiazol-2-yl)thio)-1-(pyrrolidin-1-yl)ethan-1-one]	24	93.29			196.33		282.81		45200 ± 5690		47600 ± 1880	510 ± 210	inhibited the viral replication	200 ± 20	160 ± 20	100 ± 10	EC50 (HIV-1NL4-3 [3]; Human immunodeficiency virus 1, TZM-bl, 48 h, TZM-bl cells infected with HIV-1NL4-3 at MOI 1, 48 h, F-Luc, mean ± SD): 180 ± 50 nM; EC50 (HIV-1NL4-3 [3]; TZM-bl cells infected with HIV-1NL4-3 at MOI 1, 48 h, F-Luc, mean ± SD, read-out: EC50): 240 ± 30 nM
O=C1Nc2ccc(Cl)cc2[C@@](C#CC2CC2)(C(F)(F)F)O1 [EFV, efavirenz, reference compound]	8	>22,740	< 1	29500 ± 3620		22700 ± 1650	>29,460	< 1		< 1							
Cc1[nH]c2ccc(-c3nnc(SCC(=O)N4CCCCC4)o3)cc2c1C [Compound 9, 2-((5-(2,3-Dimethyl-1H-indol-5-yl)-1,3,4-oxadiazol-2-yl)thio)-1-(piperidin-1-yl)ethan-1-one]	24	224.40			371.76		315.14		44100 ± 3710		56100 ± 4480	250 ± 60	inhibited the viral replication	130 ± 20	140 ± 10	100	EC50 (HIV-1NL4-3 [3]; Human immunodeficiency virus 1, TZM-bl, 48 h, TZM-bl cells infected with HIV-1NL4-3 at MOI 1, 48 h, F-Luc, mean ± SD, read-out: EC50): 170 ± 20 nM; EC90 (HIV-1NL4-3 [3]; Human immunodeficiency virus 1, TZM-bl cells, read-out: approximate EC90): ~1500 nM
